Series [1] deals with pruritus mice model to which morphine had been intracisternally administered. In words: Anti-pruritic effect in pruritus mice model to which morphine had been intracisternally administered. The class given is in vivo. The note with it: Mus musculus; oral administration, male ICR mice, inhibition of morphine-induced scratching behavior; read-out: ED50. As for the experimental part: As experimental animals, male ICR (Cr1j: CD1 (ICR): Charles River Japan) mice were used at 5 to 6-week old. The mice were placed in an acrylic cage (colorless and transparent, W 13.5 cm×D 9.5 cm×H 40 cm) for observing scratching behavior for 30 minutes or more to thereby allow the mice to get used to the observation environment, and the test substance solutions were forcedly orally administered to the test substance-administered groups. In addition, an administration vehicle was forcedly orally administered to the normal control group and the pathological control group. A necessary amount of the test substance was weighed and formed into a micropowder in an agate mortar, an administration vehicle, a 0.5 w/v % methyl cellulose 400 solution (Wako Pure Chemical Industries Ltd.) was added little by little, and preparation was performed by suspending or dissolving so as to give an intended concentration (from 0.025 to 3 mg/ml). The test doses were preset to suitable doses in the range in which the maximum dose is 30 mg/10 ml/kg.
Based on 30 minutes after the forced oral administration of the test substance as a criterion, the time for the intracisternal administration of morphine was suitably set up to 120 minutes after at the maximum, with consideration for the times of maximum plasma concentration of the respective test substances, in the case when the in vivo pharmacokinetics of the test substance had been confirmed in advance. Furthermore, saline was intracisternally administered to the normal control group, and the above-mentioned morphine solution was intracisternally administered to the pathogenic control group, so as to be 5 μL/site at the same time as that of the test substance group after the forced oral administration of the administration vehicle in either case.
The behavior of each mouse within 60 minutes from the intracisternal administration of the morphine solution or saline was recorded by a digital video camera that was installed immediately above the acrylic cage, the images were stored in a digital video recorder, and the number of frequency of the scratching behavior was measured. The number of frequency of the scratching behavior was measured with deeming a behavior in which the mouse raised its hindlimb, scratched the facial surface and the peripheral sites thereof, and got the hindlimb off from the body within 30 minutes from after the intracisternal administration of the morphine or saline as one time.
The anti-pruritic effect of each test substance was obtained as follows. As an inhibition ratio against the number of frequency of the scratching behavior on the pathological control group, the inhibition ratio (%) of the respective individuals and the average value thereof were calculated from the following formula, and an ED50 value was calculated based on the obtained inhibition ratio. Inhibition ratio of each individual (%)={1−(A−Vehicle)/(Morphine−Vehicle)}×100 Morphine: the average of the scratching number of the pathological control group Vehicle: the average of the scratching number of the normal control group A: the scratching number of each individual in the test substance-administered group

Series [2] is described as follows: Plasma concentration of test substance at ED50 value (mice, LC/MS/MS). The series is classed as in vivo. The note with it: at the ED50 value, at time of morphine administration, oral, linear regression from two doses. As for the experimental part:
The concentration of the test substances in blood plasma was confirmed by using mice of the same week-old for the same dose as that used in the evaluation of the anti-pruritic effect. The test substance was administered by forced oral administration of an administration vehicle prepared in a similar manner to that in the evaluation of the anti-pruritic effect under a non-fasting condition. The blood samples were collected from the orbital venous plexus, within from 15 minutes after the administration of the test substance to after 180 minutes at the maximum, for multiple times including the timing at which the morphine solution was intracisternally administered, under inhalation anesthesia with diethyl ether or isoflurane using a heparin-treated hematocrit tubes. The collected blood samples were immediately ice-cooled and centrifuged at 1,800 g for 15 minutes at 4° C., and the plasma fractions were transferred and stored under freezing at −30° C. or less until measurement.
The concentrations of the test substances in plasma were measured using LC/MS/MS. Furthermore, as the measurement samples for LC/MS/MS, the supernatants obtained by adding an internal standard substance and acetonitrile in an amount within a range from 5-fold to 10-fold of the amount of the plasma to the collected plasma samples, and removing proteins therefrom, was used.

The target of series [3] is hERG current (Homo sapiens (Human), UniProt Q12809). In words: cell-based. From the text: A: the suppression rate (%) of the test substance in each cell
B: the average suppression rate (%) of the vehicle control group

A short description of series [4]: in vitro. The series is classed as in vitro ADME, mice. The settings on record: Crl:CD-1 (ICR), mouse, pH 7.4; murine serum, equilibrium dialysis, 37° C., 5 to 6 hours; read-out: Protein binding rate (converted). As for the experimental part:
The protein binding rate was determined by equilibrium dialysis method using the RED Device (8K MWCO, Rapid Equilibrium Dialysis Device, Thermo Scientific). The test substances that had been dissolved in DMSO were added to the serum that was collected from Crl: CD-1 (ICR) mice fasted overnight, so that the final concentration of DMSO became 1% (v/v). The serum to which the test substance had been added was added to the inner side of the dialysis membrane of the RED Device, and PBS (phosphate buffer saline, pH 7.4) containing 0.01% (v/v) Tween 80 was added to the outside in accordance with the method for using the RED Device and incubated at 37° C. for 5 to 6 hours with ellipsoidal shaking at 100 rpm so that the concentration of the unbound test substance in the serum and the concentration of the test substance in the PBS reached equilibrium. After the incubation was completed, the respective solutions were collected and stored under freezing at −60° C. or less as measurement samples. The proteins were removed from the measurement sample by adding acetonitrile in an amount of 5-fold or more of the amount of the internal standard substance and the serum sample, and the supernatants were measured by LC/MS/MS (liquid chromatograph—triple quadrupole mass spectrometer). The serum samples were measured after suitably diluting with distilled water as necessary.
A: the concentration of the test substance in the PBS sample
B: the concentration of the test substance in the serum sample
A general note: Equilibrium dialysis compares concentrations on both sides of a semipermeable membrane.

Series [5] concerns the target hERG (Homo sapiens (Human), UniProt Q12809). In words: Safety margin against hERG inhibitory activity. The settings on record: hERG IC50×1000/{concentration in plasma at ED50×(1−protein binding rate/100)}. As for the experimental part: In order to compare the risks of extension of QT interval prolongation in the electrocardiogram among the test substances, the safety margins against the hERG inhibitory effect were calculated. […] Therefore, the following formula was used for calculating the safety margin, and the obtained values were described in Table 7. Safety margin against hERG inhibitory effect=IC50×1000/{concentration in plasma×(1−protein binding rate/100)}
IC50: the IC50 value in a hERG inhibition assay (μM)
Plasma concentration: the plasma concentration of test substance (nM) at the ED50 value in the test for evaluating the anti-pruritic effect in the morphine model
Protein binding rate: the protein binding rate (%) in the protein binding assay in murine serum
On the technique in general: hERG is a cardiac potassium channel; its block is linked to QT prolongation.

Series [6] addresses human μ-opioid receptor (Homo sapiens (Human), UniProt P35372). Put plainly: Antagonist activity test using [35S]-GTPγS bond as index using human μ-opioid receptor-expressing cell membrane. The series is classed as biochemical. As for the experimental part:
Cells in which a human μ-opioid receptor had been highly expressed was purchased from ChanTest (Cleveland). The cells were cultured in a carbon dioxide gas culturing apparatus by using a Ham's F12 culture medium (Invitrogen) containing 10% of fetal bovine blood serum, 1% of non-essential amino acids, 0.4 mg/ml of G418, 100 U/ml of penicillin and 100 μg/ml of streptomycin. The cultured cells were suspended by using a 0.25% trypsin 1 mM EDTA solution, the suspension was collected by using phosphate-buffered saline and centrifuged at 4° C. and 1,000 rpm for 10 minute to remove the supernatant, whereby a cell mass was obtained. […] Similar homogenization and centrifugation operations were repeated on the sediment, a homogenized buffer was added again to the obtained sediment, and the resultant was similarly homogenized to give a membrane fraction solution. The obtained membrane fraction solution was dispensed, rapidly frozen and stored under freezing at −70° C. or less until use. Furthermore, the protein concentration of the obtained membrane fraction solution was measured by using a BCA protein Assay Kit (Cat. 23227, Pierce) according to the protocol attached to the kit.
The cell membrane fraction solution in which the human μ-opioid receptor had expressed, which had been stored under freezing, was melted, a GTP assay buffer (100 mM NaCl, 5 mM MgCl2, 1 mM EDTA-containing 50 mM Hepes (pH 7.4)) was added thereto, and the resultant was homogenized repeatedly twice by using a Polytron homogenizer (SMT Multi Disperser PB95) under ice cooling at 12,000 rpm for 20 seconds to give a homogeneous solution, and the homogeneous solution was diluted to 0.036 mg/ml with a GTP assay buffer containing 18.2 μM of GDP (final concentration: […]). The dilution was incubated for 15 minutes or more under ice cooling until the reaction was initiated. […] [^35S]-GTPγS (NEG030X, Perkinelmer) was diluted with a GTP assay buffer so as to be 0.616 nM (final concentration: 0.08 nM). The resultant was diluted with a GTP assay buffer so as to be 200 nM (final concentration: 10 nM) by using [D-Ala^2, N-Me-Phe^4, Gly^5-ol]-enkephalinacetate (DAMGO, Sigma) as a μ-opioid receptor agonist. WGA Coated PVT SPA Beads (RPNQ0001, Perkinelmer) were added so as to be 20 mg/ml with a GTP assay buffer, and the resultant was suspended (final concentration: 1 mg/well). 4 μL/well of a test substance solution, 10 μL/well of a DAMGO solution, 26 μL/well of a [^35S]-GTPγS solution, […] of a suspension liquid of WGA Coated PVT SPA Beads, and 110 μL/well of the membrane fraction solution were added to a 96 well plate (1450-401, Perkinelmer), the top part of the plate was sealed, and a reaction was performed at 30° C. for 60 minutes under stirring with a plate shaker. For each measurement plate, a well to which DMSO had been added instead of the test substance, and a well to which DMSO had been added instead of the test substance and a GTP assay buffer had been added instead of the DAMGO solution were prepared. Furthermore, after the reaction was completed, the reactant was centrifuged at room temperature and 1,000 rpm for 3 minutes, and the radioactivity was measured by a microplate scintillation luminescence counter (Perkinelmer).
The IC50 value of the test substance was calculated by using Graphpad Prism 5.

The structures appear in SMILES notation. Where a name gives a salt, the structure may show the parent alone.

Sequence of hERG current (Q12809 whole entry): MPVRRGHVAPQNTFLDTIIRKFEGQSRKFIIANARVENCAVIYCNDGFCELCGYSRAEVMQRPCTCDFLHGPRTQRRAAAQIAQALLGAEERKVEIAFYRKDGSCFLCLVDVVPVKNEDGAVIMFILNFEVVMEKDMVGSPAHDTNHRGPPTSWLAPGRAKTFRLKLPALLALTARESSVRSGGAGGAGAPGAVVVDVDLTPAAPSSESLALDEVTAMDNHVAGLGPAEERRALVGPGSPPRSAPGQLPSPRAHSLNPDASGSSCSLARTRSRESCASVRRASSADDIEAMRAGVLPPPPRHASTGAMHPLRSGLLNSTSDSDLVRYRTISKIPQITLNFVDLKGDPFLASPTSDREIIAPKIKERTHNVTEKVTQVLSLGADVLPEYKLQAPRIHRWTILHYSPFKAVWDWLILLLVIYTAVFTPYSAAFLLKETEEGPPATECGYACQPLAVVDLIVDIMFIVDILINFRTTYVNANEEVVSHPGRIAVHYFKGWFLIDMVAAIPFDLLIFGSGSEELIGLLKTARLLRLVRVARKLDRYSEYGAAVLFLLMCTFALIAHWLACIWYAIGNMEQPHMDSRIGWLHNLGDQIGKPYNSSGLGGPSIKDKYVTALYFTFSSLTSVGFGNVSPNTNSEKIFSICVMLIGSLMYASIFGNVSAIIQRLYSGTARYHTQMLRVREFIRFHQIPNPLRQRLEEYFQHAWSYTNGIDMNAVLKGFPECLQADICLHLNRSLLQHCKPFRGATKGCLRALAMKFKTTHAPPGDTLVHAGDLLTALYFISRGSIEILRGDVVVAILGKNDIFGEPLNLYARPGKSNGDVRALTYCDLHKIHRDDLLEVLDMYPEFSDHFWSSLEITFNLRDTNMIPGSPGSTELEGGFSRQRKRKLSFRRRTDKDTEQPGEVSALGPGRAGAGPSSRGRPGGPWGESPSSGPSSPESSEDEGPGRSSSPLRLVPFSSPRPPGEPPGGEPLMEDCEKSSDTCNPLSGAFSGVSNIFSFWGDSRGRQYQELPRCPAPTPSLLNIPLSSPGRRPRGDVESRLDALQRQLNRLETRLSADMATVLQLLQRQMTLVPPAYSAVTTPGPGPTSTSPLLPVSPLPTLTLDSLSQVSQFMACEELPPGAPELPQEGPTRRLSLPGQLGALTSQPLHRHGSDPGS

Turning to `CC[C@]1(c2cccc(NS(=O)(=O)C3CC3)c2)[C@@H]2CN(CC3(O)Cc4ccccc4C3)C[C@@H]21` [Example 1-(a), N-(3-{(1R,5S,6r)-6-ethyl-3-[(2-hydroxy-2,3-dihydro-1H-inden-2-yl)methyl]-3-azabicyclo[3.1.0]hexan-6-yl}phenyl)cyclopropanesulfonamide], in series [1], the ED50 (as a rule, the midpoint of the dose-response relation) turned out to be 3.5 mg/kg. Further, the “Plasma concentration of test substance” value in series [2] amounted to 70.8 nM. Also, the IC50 (commonly the point on the concentration scale where inhibition reaches its midpoint) in series [3] is 0.11 µM. The fraction unbound in series [4] is 0.019. In series [5], this compound displayed a Safety margin of 82.
As for `CC[C@]1(c2cccc(NS(=O)(=O)C3CC3)c2)[C@@H]2CN(CC3(OC)Cc4ccccc4C3)C[C@@H]21` [Example 3-(b), N-(3-{(1R,5S,6r)-6-ethyl-3-[(2-methoxy-2,3-dihydro-1H-inden-2-yl)methyl]-3-azabicyclo[3.1.0]hexan-6-yl}phenyl)cyclopropanesulfonamide hydrochloride], the IC50 in series [6] was determined as 0.0036 µM; in series [3], 0.58 µM. For the same compound, the ED50 in series [1] is 4.2 mg/kg. For the same compound, the “Plasma concentration of test substance” value in series [2] was found to be 48.8 nM. For the same compound, the Safety margin in series [5] worked out at 1980.
Take `CC[C@]1(c2cccc(NS(=O)(=O)C3CC3)c2)[C@@H]2CN(CCCC3(OC)CCC(F)(F)CC3)C[C@@H]21` [Example 6-(b), N-(3-{(1R,5S,6r)-3-[3-(4,4-difluoro-1-methoxycyclohexyl)propyl]-6-ethyl-3-azabicyclo[3.1.0]hexan-6-yl}phenyl)cyclopropanesulfonamide hydrochloride]: the ED50 in series [1] came to 0.42 mg/kg. Further, the IC50 in series [3] was 0.66 µM. The fraction unbound in series [4] is 0.039.
Regarding `CC[C@]1(c2cccc(NS(=O)(=O)C3CC3)c2)[C@@H]2CN(CCCN3CCC(F)(F)CC3)C[C@@H]21` [Example 7-(b), N-(3-{(1R,5S,6r)-3-[3-(4,4-difluoropiperidin-1-yl)propyl]-6-ethyl-3-azabicyclo[3.1.0]hexan-6-yl}phenyl)cyclopropanesulfonamide hydrochloride], the IC50 was determined as 0.0014 µM in series [6] and 1.2 µM in series [3]. The ED50 in series [1] worked out at 2.4 mg/kg. Besides, the “Plasma concentration of test substance” value in series [2] is 21.5 nM. Also, the Safety margin in series [5] came to 375.
For the compound `C[C@]1(c2cccc(NS(=O)(=O)C3CC3)c2)[C@@H]2CN(CC3(O)Cc4ccccc4C3)C[C@@H]21` [Example 17-(b), N-(3-{(1R,5S,6r)-3-[(2-hydroxy-2,3-dihydro-1H-inden-2-yl)methyl]-6-methyl-3-azabicyclo[3.1.0]hexan-6-yl}phenyl)cyclopropanesulfonamide hydrochloride], the IC50 amounted to 0.0054 µM in series [6] and 0.13 µM in series [3]. The ED50 in series [1] came to 1.5 mg/kg. The “Plasma concentration of test substance” value in series [2] is listed as 68.2 nM. Also, the Safety margin in series [5] is 48.

These data come from US9663463B2, “3-azabicyclo[3.1.0]hexane derivative and use thereof for medical purpose” (priority 2013, dated 2017).
